Here are results for 17 compounds from paper PMC7470021, “Functionality study of chalcone-hydroxypyridinone hybrids as tyrosinase inhibitors and influence on anti-tyrosinase activity” (Journal of Enzyme Inhibition and Medicinal Chemistry, 2020).

Where two headings read alike, the source gives them in different places.

One may read the inhibition as the drop in the measured response relative to a control, in per cent.

Data set [1] has as its target T1, monophenolase activity of mushroom tyrosinase (Agaricus bisporus, UniProt C7FF04). On the set-up: method as in PMID 15231412. To be noted: at 50 μM, literature value; cited from earlier work.
The target in data set [2] is T1, monophenolase activity of mushroom tyrosinase. Nature of the data set: Monophenolase inhibition assay (L-tyrosine substrate, dopachrome absorbance at 475 nm). As to conditions: pH 6.8, read-out: Inhibition (%) on monophenolase activity.
Protocol: L-Tyrosine and L-DOPA were used as reaction substrate for monophenolase and diphenolase assays, respectively. […] Finally, 20 units of enzyme was quickly added to the reaction mixture and incubated at 30 °C for 10 min. […] The assay was carried out in triplicate and DMSO was used as control[17].
Data set [3] is described as follows: Copper(II) stability constants determination and pCu2+. The class given is physicochemical. The procedure:
(§1) An automated titration system used in the study consists of a Metrohm 765 Dosimat autoburette, a Mettler Toledo MP230 pH metre with SENTEK pH electrode (P11), and an HP 8453 UV-visible spectrophotometer with a Hellem quartz flow cuvette being circulated through by a Gilson Mini-plus #3 pump—speed capability (20 ml/min). A potassium chloride electrolyte solution (0.1 M) was used to maintain the ionic strength. The temperature of the test solutions was maintained in a thermostatic jacketed titration vessel at 25 °C (± 0.1 °C) using a Fisherbrand Isotemp water bath. The pH electrodes were calibrated using GLEE[25] with data obtained by titrating a volumetric standard HCl (0.1 M) in KCl (0.1 M) with KOH (0.1 M) under an argon gas atmosphere in the vessel. The solution under investigation was stirred vigorously during the experiment. […] All instruments were interfaced to a computer and controlled by an in-house programme. An automated titration adopted the following strategy: the pH of a solution was increased by 0.1 pH unit by the addition of KOH solution (0.1 M) from the autoburette. The pH readings were judged to be stable if their values varied by less than 0.01 pH unit after a set incubation period. […] The cycle was repeated until the defined end point pH value was achieved. Titrations were carried out in the solution with molar ratio of DMSO: H2O being 0.2: 1 due to the solubility issue of samples and/or the corresponding copper(II) complexes. Under this condition, the pH metre readings are shifted, compared to the aqueous solution. All the titration data were analysed with the HypSpec2014 programme (http://www.hyperquad.co.uk/)[26]^,[27]. The speciation plot and pM values were calculated with the HYSS programme. Based on deferiprone titrations, pCu^2+ at pH 7.6, denoted as pCu^2+7.6, with [ligand]total = 10 µM and [Metal]total = 1 µM, were calculated as close approximations for pCu^2+ at pH 7.4 in the aqueous solution. Analytical grade reagent materials were used in the preparation of all solutions.

Data set [4] in a line: pKa determination by spectrophotometric titration. The class given is physicochemical. To be noted: DMSO/water solution (molar ratio 0.2:1) with 0.1 M KCl, 25 °C. The procedure: as §1
The subject of the next data set is mushroom tyrosinase. Nature of the data set: Reversibility of inhibitory effect on tyrosinase (L-DOPA substrate). The class given is biochemical. As to conditions: inhibitor 0-25 µM, 30 °C, pH 6.8. An excerpt:
Measurement method was substantially the same to that described above, changing the added concentration of the enzyme solution, different concentrations of inhibitor on mushroom tyrosinase L-DOPA as reaction substrate.

Details of data set [5]: method as in PMID 26239546. As to conditions: literature value for kojic acid; cited from earlier work.
Where [6] appears, read: 25 °C, 0.1 M KCl, DMSO:H2O molar ratio 0.2:1.

T1 sequence (G1K3P4 entry or part of it): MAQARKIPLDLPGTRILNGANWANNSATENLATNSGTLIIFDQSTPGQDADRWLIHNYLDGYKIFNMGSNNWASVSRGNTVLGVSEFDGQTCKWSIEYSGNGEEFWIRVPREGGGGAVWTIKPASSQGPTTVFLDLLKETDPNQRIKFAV
T1 sequence (C7FF04 1-392): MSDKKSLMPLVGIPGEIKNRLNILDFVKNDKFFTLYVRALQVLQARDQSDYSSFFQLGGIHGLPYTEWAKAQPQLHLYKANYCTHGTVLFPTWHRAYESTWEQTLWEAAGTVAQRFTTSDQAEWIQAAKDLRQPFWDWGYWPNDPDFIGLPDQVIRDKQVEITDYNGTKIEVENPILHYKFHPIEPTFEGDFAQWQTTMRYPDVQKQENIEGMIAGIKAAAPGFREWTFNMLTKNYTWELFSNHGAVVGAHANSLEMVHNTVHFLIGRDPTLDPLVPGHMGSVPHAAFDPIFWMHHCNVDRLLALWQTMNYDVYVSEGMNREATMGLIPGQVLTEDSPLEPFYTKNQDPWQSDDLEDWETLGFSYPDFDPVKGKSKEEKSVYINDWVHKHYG

As to `O=C(/C=C/c1ccc(O)cc1)c1ccc(O)cc1O` [2′,4′,4-trihydroxychalcone], the Inhibition rate in data set [1] is 67%.

For `COc1ccc(C(=O)/C=C/c2cc(=O)c(O)co2)c(OC)c1` [Compound 1c], the inhibition at 50 µM in data set [2] was determined as 50.3%.

`CCn1cc(O)c(=O)cc1/C=C/C(=O)c1ccc(O)c(O)c1` [Compound 1f]: the inhibition at 50 µM in data set [2] was found to be 78.8%.

For the compound `CCCCn1cc(O)c(=O)cc1/C=C/C(=O)c1ccc(F)cc1` [Compound 1l], the inhibition at 50 µM in data set [2] came out at 50.3%.

With `COc1ccc(C(=O)/C=C/c2cc(=O)c(O)c[nH]2)cc1OC` [Compound 1n], the “log β1 (log stability constant of copper complex CuLH)” value in data set [3] (setting [6]) is listed as 20.9. In data set [3] (setting [6]), the “log β2 (log stability constant of copper complex CuL2H2)” value stood at 40.4. For the same compound, the “pCu2+” value in data set [3] ([Cu]total=10^-6 M, [L]total=10^-5 M, pH 7.4, calculated from pKa and log stability constants with HYSS) is recorded as 9.9. Besides, in data set [2], the inhibition at 50 µM came out at 87.6%. For the same compound, the pKa in data set [4] (DMSO:H2O molar ratio 0.2:1, read-out: pKa (1-NH)) stood at 12; in data set [4] (DMSO:H2O molar ratio 0.2:1, read-out: pKa (4-oxo functional group)), 3.3; in data set [4] (DMSO:H2O molar ratio 0.2:1, read-out: pKa (5-hydroxyl group)) it was 8.8.

Turning to `CCCCn1cc(O)c(=O)cc1/C=C/C(=O)c1ccc(OC)cc1O` [Compound 1k], in data set [2], the inhibition at 50 µM is 64.6%.

Turning to `Cn1cc(O)c(=O)cc1/C=C/C(=O)c1ccccc1` [Compound 1i], the inhibition at 50 µM in data set [2] was 72.8%.

Consider `COc1ccc(C(=O)/C=C/c2cc(=O)c(O)c[nH]2)c(O)c1` [Compound 1o], for which, in data set [2], the inhibition at 50 µM turned out to be 63.3%.

Regarding `Cn1cc(O)c(=O)cc1/C=C/C(=O)c1ccc(F)cc1` [Compound 1a], the “Reversibility of inhibition on diphenolase activity of tyrosinase” value with mushroom tyrosinase is recorded as “reversible”. Besides, the inhibition at 50 µM in data set [2] amounted to 85.3%.

Consider `O=C(/C=C/c1cc(=O)c(O)c[nH]1)c1ccc(F)cc1` [Compound 1d], for which the “Reversibility of inhibition on diphenolase activity of tyrosinase” value with mushroom tyrosinase is reported as “reversible”. Besides, the inhibition at 50 µM in data set [2] was found to be 89.5%.

Take `O=C(/C=C/c1cc(=O)c(O)c[nH]1)c1ccccc1` [Compound 1m]: the inhibition at 50 µM in data set [2] was 66.7%.

As to `O=c1cc(CO)occ1O` [Kojic acid], in data set [5], the “pCu2+” value is given as 7.3.

Regarding `CCCCn1cc(O)c(=O)cc1/C=C/C(=O)c1ccc(O)c(O)c1` [Compound 1j], in data set [2], the inhibition at 50 µM stood at 69.4%.

For the compound `CCn1cc(O)c(=O)cc1/C=C/C(=O)c1ccccc1` [Compound 1e], the inhibition at 50 µM in data set [2] came out at 63.3%.

Consider `COc1ccc(C(=O)/C=C/c2cc(=O)c(O)cn2C)c(O)c1` [Compound 1b], for which, in data set [2], the inhibition at 50 µM amounted to 66.7%.

Consider `CCn1cc(O)c(=O)cc1/C=C/C(=O)c1ccc(F)cc1` [Compound 1h], for which, in data set [2], the inhibition at 50 µM is 57.8%.

In the case of `CCn1cc(O)c(=O)cc1/C=C/C(=O)c1ccc(OC)cc1O` [Compound 1g], the inhibition at 50 µM in data set [2] was 71.4%.
